Data on eleven compounds can be found in article PMC12521615, “Accurate affinity models for SH2 domains from peptide binding assays and free‐energy regression” (Protein Science : A Publication of the Protein Society, 2025).

Non-standard residues stand in square brackets, D forms with d. Residues, ends and D or L forms follow the SMILES beside them. pY = N[C@@H](Cc1ccc(OP(=O)(O)O)cc1)C(=O)O

As a reminder, the Kd is the constant that tells how readily two partners part at equilibrium.

The target of one assay is T1, Lyn SH2 domain (Homo sapiens, UniProt P07948).
T1 construct: The human SH2 domains from Fyn (142–248), Lyn (121–228); His6-SUMO (N, cleaved yes); host or cells: Escherichia coli C43(DE3) with BirA helper plasmid
T1 sequence (P07948 121-228): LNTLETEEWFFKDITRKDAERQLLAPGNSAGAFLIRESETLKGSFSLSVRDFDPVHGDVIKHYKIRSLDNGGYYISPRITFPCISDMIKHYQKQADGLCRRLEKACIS
The experiment in a line: competitive fluorescence polarization, Lyn SH2 domain. The settings on record: Table S3, unpaired validation; competition fluorescence polarization; probe FITC-Ahx-GDG-pY-EEISPLLL-NH2 30 nM; [SH2] 106 nM; mean. It counts as binding. The source says: First, we generated bacterial display datasets and affinity models for three additional SH2 domains from Src‐family kinases Lyn, Blk, and Yes (Figure 5a). For validation of the affinity model for Lyn, we selected a subset of phosphopeptides that were likely to fall within the dynamic range of the competitive fluorescence polarization assay (see “Methods” for details). […] We measured binding affinities to the corresponding phosphopeptides by fluorescence polarization.
The human SH2 domains from Fyn (142–248), Lyn (121–228), Blk (116–222), and Yes (150–257) kinases were PCR‐amplified from plasmids encoding the full‐length proteins and cloned using the NEBuilder® HiFi DNA Assembly Master Mix (NEB) in a pET plasmid backbone that was PCR‐amplified with the primers pETXbaI_for and pETXhoI_rev (these and all other primers are defined in Table S7) from the pET‐His6‐SUMO‐Grb2(SH2), as reported before (Li et al., [2023]), thus adding an N‐terminal His6‐SUMO tag and a C‐terminal AviTag® for biotinylation. The SH2 plasmids are available via Addgene: pET28‐His6‐SUMO‐Fyn‐SH2‐AviTag (214202), pET28‐His6‐SUMO‐Blk‐SH2‐AviTag (214204), pET28‐His6‐SUMO‐Lyn‐SH2‐AviTag (214207), pET28‐His6‐SUMO‐Yes‐SH2‐AviTag (214208), and pET28‐His6‐SUMO‐cSrc‐SH2‐AviTag (214230). For expression and parallel biotinylating of the SH2 domain product, Escherichia coli C43(DE3) cells carrying a BirA encoding helper plasmid were transformed with the respective SH2 domain expression construct and plated to grow overnight at 37°C on a streptomycin and kanamycin (100 μg/mL both) LB‐agar plate. The colonies were collected in 10 mL of TB medium and used to inoculate 1 L of TB medium and grown at 37°C and 215 rpm. Upon reaching an OD600 of 0.5, the expression of the SH2 domains was induced by adding IPTG up to 0.5 mM and biotin up to 250 μM, and the expressing culture was incubated at 18°C for 16–18 h. After removing the medium through centrifugation, the cell pellets were snap‐frozen in liquid N2 and stored at −80°C until purification. To purify the biotinylated SH2 domains, the cell pellets were resuspended in lysis buffer (50 mM Tris, pH 7.5, 300 mM NaCl, 20 mM imidazole, 10% glycerol), supplementing them with 2 mM β‐mercaptoethanol and 1× protease inhibitor cocktail before lysis by sonication (Fisherbrand Sonic Dismembrator). The soluble fraction separated after centrifugation at 33,000 g was run on a HisTrap HP column (Cytiva), then washed with 10 CV of the lysis buffer followed by 10 CV of wash buffer (50 mM Tris, pH 7.5, 50 mM NaCl, 10 mM imidazole, 10% glycerol). Next, the protein was eluted with elution buffer (50 mM Tris, pH 7.5, 50 mM NaCl, 250 mM imidazole, 10% glycerol) directly onto a 5 mL HiTrap Q HP anion exchange column (Cytiva). The biotinylated SH2 domain was then eluted from the anion exchange column with an NaCl gradient (50 mM Tris, pH 7.5, 0.05–1 M NaCl, 1 mM TCEP‐HCl), and the His6‐SUMO tag was cleaved using 0.05 mg/mL Ulp1 protease. The biotinylated SH2 domain was then collected in a flowthrough after running the cleavage reaction over a HisTrap HP column. Finally, the biotinylated SH2 domain in the flowthrough was run on a HiLoad 16/600 Superdex 75 pg size exclusion column (Cytiva) in storage buffer (20 mM HEPES, pH 7.5, 150 mM NaCl, 10% glycerol).
(In general: Fluorescence polarisation rises when a labelled molecule tumbles more slowly, as on binding a larger partner.)

Another assay addresses Grb2 SH2 domain (Homo sapiens, UniProt P62993). The experiment in a line: biochemical. An excerpt:
Measured binding constants (K D) from competition mode fluorescence polarization experiments were obtained using the purified SH2 domains used for the selection and chosen sets of peptides with a phosphorylated tyrosine exactly as described previously (Li et al., [2023]). […] (c‐Src SH2 consensus) was used as the probe, and for the Grb2 SH2 domain, the fluorescently labeled peptide FITC‐Ahx‐FDDPS(pY)VNVQN (Ahx = 6‐aminohexanoic acid) from the Y177 phospho‐tyrosine site of BCR. Before performing the competition mode fluorescence polarization measurement, the K D of the probes for the respective SH2 domains was first measured in a direct mode of fluorescence polarization. […] For the set of peptides where single point mutations were compared, phosphopeptides reported in the PhosphoSitePlus database (Hornbeck et al., [2015]) and previously shown to bind to the c‐Src SH2 domain (Li et al., [2023]) were chosen alongside their respective single point mutants. To choose phosphopeptides for validation of the Lyn SH2 domain, we started from all verified phosphopeptides found in PhosphoSitePlus, filtered based on their co‐expression with the Lyn kinase using the STRING database. Using the validation data for the Fyn SH2 domain, the range of predicted relative binding affinities that corresponds to the range between 1 nM and 100 μM, which is the dynamic range of reliable measurement of absolute binding affinities using our competitive fluorescence polarization setup, was defined and used to further filter the set of candidate phosphopeptides. A subset that evenly covers the chosen range of predicted relative affinities was finally picked for the validation measurements of the Lyn SH2 domain. For the c‐Src, Yes, and Blk SH2 domains, a combination of the previously chosen peptides was used, after verifying that their predicted relative affinities for the given SH2 domain fell within the same measurable range. All peptides containing phosphorylated tyrosine, both fluorescently labeled and non‐labeled, were produced by SynPeptide (China).

The target in the next assay is T2, c-Src SH2 domain (Homo sapiens, UniProt P12931).
T2 construct: the SH2 domain from c‐Src kinase; His6-SUMO (N, cleaved yes); host or cells: Escherichia coli C43(DE3) with BirA helper plasmid
T2 sequence (P12931 151-248 limits assumed): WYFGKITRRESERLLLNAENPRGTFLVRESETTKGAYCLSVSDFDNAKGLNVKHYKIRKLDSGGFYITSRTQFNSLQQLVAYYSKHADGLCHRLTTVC
The experiment in a line: competitive fluorescence polarization, c-Src SH2 domain. The assay is classed as binding. The settings on record: Table S3, unpaired validation; competition fluorescence polarization; probe FITC-Ahx-GDG-pY-EEISPLLL-NH2 30 nM; [SH2] 123-126 nM; mean.

Sequence of Grb2 SH2 domain (P62993 60-152 limits assumed): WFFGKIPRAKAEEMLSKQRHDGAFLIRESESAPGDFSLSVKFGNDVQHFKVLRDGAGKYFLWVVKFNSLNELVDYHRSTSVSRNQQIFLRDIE
From the text for c-Src SH2 domain: Measured binding constants (K D) from competition mode fluorescence polarization experiments were obtained using the purified SH2 domains used for the selection and chosen sets of peptides with a phosphorylated tyrosine exactly as described previously (Li et al., [2023]). […] Before performing the competition mode fluorescence polarization measurement, the K D of the probes for the respective SH2 domains was first measured in a direct mode of fluorescence polarization. […] Using the validation data for the Fyn SH2 domain, the range of predicted relative binding affinities that corresponds to the range between 1 nM and 100 μM, which is the dynamic range of reliable measurement of absolute binding affinities using our competitive fluorescence polarization setup, was defined and used to further filter the set of candidate phosphopeptides. A subset that evenly covers the chosen range of predicted relative affinities was finally picked for the validation measurements of the Lyn SH2 domain.

Consider `CC[C@H](C)[C@H](NC(=O)[C@H](CC(N)=O)NC(=O)[C@H](CCCCN)NC(=O)[C@H](Cc1ccc(OP(=O)(O)O)cc1)NC(=O)[C@H](CC(=O)O)NC(=O)[C@@H](NC(=O)CNC(=O)CNC(=O)[C@H](CCC(=O)O)NC(=O)[C@H](CCC(N)=O)NC(C)=O)C(C)C)C(=O)N[C@@H](Cc1c[nH]cn1)C(=O)N[C@@H](CC(C)C)C(=O)NCC(N)=O` [CSF1R pY699] (Ac-QEGGVD[pY]KNIHLG-NH2), for which, at Lyn SH2 domain, the Kd was determined as 22800 nM.
Take `CC[C@H](C)[C@H](NC(=O)[C@H](CC(N)=O)NC(=O)[C@H](Cc1c[nH]cn1)NC(=O)[C@H](CCC(N)=O)NC(C)=O)C(=O)N[C@@H](Cc1c[nH]cn1)C(=O)N[C@@H](CO)C(=O)N[C@@H](Cc1ccc(OP(=O)(O)O)cc1)C(=O)N[C@H](C(=O)N[C@@H](CC(N)=O)C(=O)N[C@H](C(=O)N1CCC[C@H]1C(=O)N1CCC[C@H]1C(=O)NCC(N)=O)[C@@H](C)CC)[C@@H](C)CC` [Syn-G2-2] (Ac-QHNIHS[pY]INIPPG-NH2): the dissociation constant Kd on Grb2 SH2 domain was 3.99 nM.
The same measure, in the same setting: the result for `CC[C@H](C)[C@H](NC(=O)[C@H](CC(N)=O)NC(=O)[C@H](Cc1c[nH]cn1)NC(=O)[C@H](Cc1ccc(OP(=O)(O)O)cc1)NC(=O)[C@H](CCCNC(=N)N)NC(=O)[C@H](CCC(N)=O)NC(=O)[C@H](Cc1c[nH]cn1)NC(=O)CNC(=O)[C@H](CC(C)C)NC(=O)[C@H](CCC(N)=O)NC(C)=O)C(=O)N[C@H](C(=O)N1CCC[C@H]1C(=O)NCC(N)=O)[C@@H](C)O` [Syn-G2-5] (Ac-QLGHQR[pY]HNITPG-NH2) reads 487 nM.
`CC[C@H](C)[C@H](NC(=O)[C@H](CCC(=O)O)NC(=O)[C@H](CO)NC(=O)[C@H](Cc1ccc(OP(=O)(O)O)cc1)NC(=O)[C@H](CCC(=O)O)NC(=O)[C@@H](NC(=O)[C@@H](NC(=O)[C@H](CO)NC(=O)[C@@H]1CCCN1C(=O)[C@H](CCC(N)=O)NC(C)=O)[C@@H](C)O)[C@@H](C)O)C(=O)N[C@@H](CCCCN)C(=O)N[C@H](C(=O)NCC(N)=O)[C@@H](C)O` [SIGLEC5 pY544] (Ac-QPSTTE[pY]SEIKTG-NH2): the Kd at Lyn SH2 domain is 362 nM; at c-Src SH2 domain, 282 nM.
In the case of `CC(=O)N[C@@H](CCC(N)=O)C(=O)N[C@@H](CC(=O)O)C(=O)N[C@@H](CC(=O)O)C(=O)N[C@@H](CCC(N)=O)C(=O)N[C@@H](CCC(=O)O)C(=O)N[C@H](C(=O)N[C@@H](Cc1ccc(OP(=O)(O)O)cc1)C(=O)N[C@@H](CC(=O)O)C(=O)N[C@@H](CC(=O)O)C(=O)N[C@H](C(=O)N[C@@H](C)C(=O)N[C@@H](CCC(=O)O)C(=O)NCC(N)=O)C(C)C)C(C)C` [SLAP-130 pY595] (Ac-QDDQEV[pY]DDVAEG-NH2), the equilibrium dissociation constant (Kd) at Lyn SH2 domain turned out to be 240 nM; at c-Src SH2 domain it was 191 nM.
In the case of `CC(=O)N[C@@H](CCC(N)=O)C(=O)NCC(=O)N[C@@H](CCCNC(=N)N)C(=O)N[C@@H](CCCNC(=N)N)C(=O)N[C@@H](CCC(=O)O)C(=O)N[C@@H](CCC(=O)O)C(=O)N[C@@H](Cc1ccc(OP(=O)(O)O)cc1)C(=O)N[C@@H](CC(=O)O)C(=O)N[C@H](C(=O)N[C@@H](CC(C)C)C(=O)N[C@@H](CC(=O)O)C(=O)N[C@@H](CCCCN)C(=O)NCC(N)=O)C(C)C` [CD3Z pY83] (Ac-QGRREE[pY]DVLDKG-NH2), binding on Lyn SH2 domain was put at a Kd of 2950 nM.
For `CC[C@H](C)[C@H](NC(=O)[C@H](CC(=O)O)NC(=O)[C@H](CC(=O)O)NC(=O)[C@H](Cc1ccc(OP(=O)(O)O)cc1)NC(=O)[C@@H](NC(=O)[C@H](CCC(=O)O)NC(=O)CNC(=O)[C@H](CC(=O)O)NC(=O)[C@H](CC(N)=O)NC(=O)[C@H](CCC(N)=O)NC(C)=O)[C@@H](C)CC)C(=O)N[C@@H](C)C(=O)N[C@@H](CC(=O)O)C(=O)NCC(N)=O` [SLAP-130 pY771] (Ac-QNDGEI[pY]DDIADG-NH2), the equilibrium dissociation constant (Kd) is 96.8 nM at Lyn SH2 domain and 94 nM on c-Src SH2 domain.
The like results for `CC(=O)N[C@@H](CCC(N)=O)C(=O)N[C@@H](CCC(=O)O)C(=O)N[C@@H](Cc1c[nH]c2ccccc12)C(=O)N[C@@H](CCCNC(=N)N)C(=O)N[C@@H](CO)C(=O)N[C@@H](CCC(N)=O)C(=O)N[C@@H](Cc1ccc(OP(=O)(O)O)cc1)C(=O)N[C@@H](CCC(=O)O)C(=O)N[C@@H](C)C(=O)N[C@@H](CC(C)C)C(=O)N[C@@H](CCCCN)C(=O)N[C@@H](CCC(=O)O)C(=O)NCC(N)=O` [TRAF3IP3 pY322] (Ac-QEWRSQ[pY]EALKEG-NH2) were, in that order, 3940 nM and 6480 nM.
The like results for `CC[C@H](C)[C@H](NC(=O)[C@H](CC(=O)O)NC(=O)[C@H](CCC(N)=O)NC(C)=O)C(=O)N[C@@H](CC(N)=O)C(=O)N[C@@H](CO)C(=O)N[C@@H](CC(C)C)C(=O)N[C@@H](Cc1ccc(OP(=O)(O)O)cc1)C(=O)N[C@@H](CC(=O)O)C(=O)N[C@H](C(=O)N[C@@H](CO)C(=O)N[C@@H](CCCNC(=N)N)C(=O)N[C@@H](CCSC)C(=O)NCC(N)=O)C(C)C` [PLCG2 pY 753] (Ac-QDINSL[pY]DVSRMG-NH2) were, in that order, 11700 nM and 12300 nM.
On to `CC(=O)N[C@@H](CCC(N)=O)C(=O)N[C@@H](Cc1c[nH]cn1)C(=O)N[C@@H](CCCCN)C(=O)N[C@@H](CCC(=O)O)C(=O)N[C@@H](CC(=O)O)C(=O)N[C@H](C(=O)N[C@@H](Cc1ccc(OP(=O)(O)O)cc1)C(=O)N[C@@H](CCC(=O)O)C(=O)N[C@@H](CC(N)=O)C(=O)N[C@@H](CC(C)C)C(=O)N[C@@H](Cc1c[nH]cn1)C(=O)N[C@H](C(=O)NCC(N)=O)[C@@H](C)O)C(C)C` [PTPN6 pY564] (Ac-QHKEDV[pY]ENLHTG-NH2), for which the Kd on Lyn SH2 domain turned out to be 943 nM; on c-Src SH2 domain, 909 nM.
On to `CC[C@H](C)[C@H](NC(=O)[C@H](CCC(=O)O)NC(=O)[C@H](CC(=O)O)NC(=O)[C@H](Cc1ccc(OP(=O)(O)O)cc1)NC(=O)[C@@H](NC(=O)[C@H](CCCNC(=N)N)NC(=O)[C@H](CO)NC(=O)[C@H](CCC(=O)O)NC(=O)[C@H](C)NC(=O)[C@H](CCC(N)=O)NC(C)=O)[C@@H](C)CC)C(=O)N[C@@H](CC(C)C)C(=O)N[C@@H](CCC(N)=O)C(=O)NCC(N)=O` [CD84 pY296] (Ac-QAESRI[pY]DEILQG-NH2), for which the values for the Kd on Lyn SH2 domain and on c-Src SH2 domain were 91 nM and 28.1 nM, respectively.
